Patent US8013176B2, “Paricalcitol purification” (Alphora Research Inc., priority 2008, dated 2011)

Key:
[1] = ICH test protocol storage stability; format: physicochemical; conditions: argon headspace, 6 months
[2] = Accelerated storage stability studies, purity by HPLC; format: physicochemical
Protocol: Samples “a” were placed in glass bottles and sealed in a Marvel seal bag under an argon head space, all air having been removed. These were stored at a temperature of 40±2° C. and relative humidity of 75±2%. Samples “b” were similarly packaged and sealed under argon headspace, but stored at 25±2° C. and 60±5% relative humidity. Samples “c” were similarly packaged and sealed under argon headspace, but stored at 5±3° C. Samples “e”, comparative standards, were similarly packaged and sealed under argon headspace, but stored at −20±5° C.
Samples “d” and “f” were placed in glass bottles, but without a marvel seal bag, and stored under air headspace −20±5° C. (samples “d”) and 40±2° C. and relative humidity of 75±2% (samples “f”).
Samples stored at elevated or reduced temperatures were brought to room temperature just prior to sample preparation.
Purity determinations were conducted by High Performance Liquid Chromatography (HPLC), using a Waters Sunfire C18 HPLC Column, 250 by 4.6 mm, with a quaternary or binary HPLC pump, a variable wavelength or photo diode array UV/visible detector set to 252 nm, and an autosampler. Water (degassed) and acetonitrile (degassed) were used as the mobile phase. The column temperature was 25° C., the flow rate 2.0 mL/min with an injection volume of 100 μL and a run time of 60 minutes.

SMILES: C[C@H](/C=C/[C@H](C)C(C)(C)O)[C@H]1CC[C@H]2/C(=C/C=C3C[C@@H](O)C[C@H](O)C3)CCC[C@]12C [Paricalcitol, 1α,25-dihydroxy-19-nor-vitamin D2]
- change in purity on storage ([1]; 5±3° C.): no reduction in purity
- change in purity on storage ([1]; −20±5° C.): no reduction in purity
- change in purity on storage ([2]; air headspace, 1 month, 40±2° C., 75%±2% relative humidity, paricalcitol of at least 99.9% purity): no reduction in purity
- change in purity on storage ([2]; argon headspace, 5 months, 40±2° C., 75±2% relative humidity): no reduction in purity
- purity after storage ([2]; samples a: argon headspace, 40±2° C., 75±2% relative humidity, 1 month): 99.9%
- purity after storage ([2]; samples a: argon headspace, 40±2° C., 75±2% relative humidity, 5 months): 99.9%
- purity after storage ([2]; samples b: argon headspace, 25±2° C., 60±5% relative humidity, 1 month): 99.9%
- purity after storage ([2]; samples b: argon headspace, 25±2° C., 60±5% relative humidity, 5 months): 99.8%
- purity after storage ([2]; samples c: argon headspace, 5±3° C., 1 month): 99.9%
- purity after storage ([2]; samples c: argon headspace, 5±3° C., 2 months): 99.9%
- purity after storage ([2]; samples c: argon headspace, 5±3° C., 5 months): 99.9%
- purity after storage ([2]; samples d: air headspace, −20±5° C., 1 month): 99.9%
- purity after storage ([2]; samples d: air headspace, −20±5° C., 5 months): 99.9%
- purity after storage ([2]; samples e: argon headspace, −20±5° C., 1 month): 99.9%
- purity after storage ([2]; samples e: argon headspace, −20±5° C., 2 months): 99.9%
- purity after storage ([2]; samples e: argon headspace, −20±5° C., 5 months): 99.9%
- purity after storage ([2]; samples f: air headspace, 40±2° C., 75±2% relative humidity, 1 month): 99.9%
